Results on nine compounds are retold here after patent US20240217973A1, “IMIDAZOPYRIDINE COMPOUNDS AND USE THEREOF” (MEDSHINE DISCOVERY INC., priority 2021, published 2024).

Structures are written as SMILES.

The assay addresses BTK kinase (Homo sapiens (Human), UniProt Q06187). The assay can be described thus: BTK kinase experiment (ADP-Glo). Particulars: 2 μM ATP, PolyE4Y1 substrate, 30 minutes pre-incubation. The assay is classed as biochemical. The protocol:
BTK kinase, PolyE4Y1 substrate and Kinase assay buffer III were purchased from Signalchem; ADP-Glo Kinase Assay was purchased from Promega; Nivo multi-label analyzer (PerkinElmer).
1× buffer preparation (which was prepared and used immediately): Kinase assay buffer III was diluted with ddH2O to 1× assay buffer for later use.
The compound to be tested was diluted with 100% DMSO to 10 μM as the first concentration, and followed by a 5-fold dilution to the 8th concentration using a multi-channel pipette, i.e., it was diluted from 10 μM to 0.128 nM.
Each gradient of the compound to be tested was diluted into a working solution with 5% DMSO using 1× buffer, 1 μL/well was added to the corresponding well, and a double-replicate well experiment was set up. 2 μL of BTK enzyme (4 ng) was add to each well and incubating at 25° C. for 30 minutes. After the incubation was completed, 2 μL of a mixture of substrate and ATP (2 μM ATP, 0.2 μg/μL PolyE4Y1) was added to each well and incubating at 25° C. for 120 minutes. At this point, the final concentration gradient of the compound was diluted from 100 nM to 0.00128 nM. After the reaction was completed, 5 μL of ADP-Glo reagent was added to each well, and the reaction continued at 25° C. for 40 minutes. After the reaction was completed, 10 μL of kinase detection reagent was added to each well. After reacting at 25° C. for 30 minutes, PerkinElmer Nivo multi-label analyzer was used to read the chemiluminescence, and the integration time was 0.5 seconds.
Raw data was converted into inhibition rate using the equation: (Sample−Min)/(Max−Min)*100%. The IC50 value could then be derived by performing a curve fit using four-parameter (which was obtained using the “log(inhibitor) vs. response-Variable slope” mode in GraphPad Prism).
(In general: ADP-Glo turns the ADP formed in a reaction into a luminescent signal.)

Chain of BTK kinase (Q06187 whole entry): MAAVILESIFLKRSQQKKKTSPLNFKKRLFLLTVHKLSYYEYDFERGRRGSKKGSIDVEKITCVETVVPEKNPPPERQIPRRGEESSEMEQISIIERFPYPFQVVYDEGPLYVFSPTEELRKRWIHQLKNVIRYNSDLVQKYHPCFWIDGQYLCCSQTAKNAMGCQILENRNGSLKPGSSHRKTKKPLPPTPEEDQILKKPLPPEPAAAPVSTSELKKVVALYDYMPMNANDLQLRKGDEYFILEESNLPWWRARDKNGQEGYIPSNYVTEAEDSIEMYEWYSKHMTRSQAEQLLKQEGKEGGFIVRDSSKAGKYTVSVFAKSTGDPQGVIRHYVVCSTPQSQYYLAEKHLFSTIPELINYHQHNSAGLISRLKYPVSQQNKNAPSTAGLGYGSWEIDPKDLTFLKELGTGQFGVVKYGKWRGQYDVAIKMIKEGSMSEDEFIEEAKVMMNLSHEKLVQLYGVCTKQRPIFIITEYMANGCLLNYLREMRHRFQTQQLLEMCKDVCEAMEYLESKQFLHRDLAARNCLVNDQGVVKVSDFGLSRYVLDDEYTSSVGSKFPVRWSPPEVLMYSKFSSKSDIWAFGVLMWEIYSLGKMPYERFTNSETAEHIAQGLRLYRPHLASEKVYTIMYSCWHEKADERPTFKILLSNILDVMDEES

Usually IC50 stands for the concentration at which inhibition is half-maximal. A higher IC50 goes with weaker potency. `C=CC(=O)N1CCC[C@@H](n2c(=O)n(-c3ccc(CNC(=O)c4cc(F)ccc4OC)cc3)c3c(N)nccc32)C1` [Compound 001] displayed an IC50 of 0.71 nM.

Turning to `COc1cccc(Oc2ccc(-n3c(=O)n([C@@H]4CCCN(C(=O)/C=C/CF)C4)c4ccnc(N)c43)cc2)c1F` [Compound 004], the midpoint of inhibition, the IC50, lay at 2.46 nM. Under `Nc1nccc2c1n(-c1ccc(Oc3c(F)cccc3F)cc1)c(=O)n2[C@@H]1CCCN(C(=O)/C=C/CF)C1` [Compound 005] stands 2.85 nM; under `Nc1nccc2c1n(-c1ccc(Oc3ccc(Br)cn3)cc1)c(=O)n2[C@@H]1CCCN(C(=O)/C=C/CF)C1` [Compound 006], 13.6 nM; under `Nc1nccc2c1n(-c1ccc(Oc3ccc(Cl)cn3)cc1)c(=O)n2[C@@H]1CCCN(C(=O)/C=C/CF)C1` [Compound 007], 16 nM.

On to `Nc1nccc2c1n(-c1ccc(Oc3ccc(F)cn3)cc1)c(=O)n2[C@@H]1CCCN(C(=O)/C=C/CF)C1` [Compound 008], for which the IC50 was 36.5 nM. Compound `Nc1nccc2c1n(-c1ccc(Oc3ccccc3)c(F)c1)c(=O)n2[C@@H]1CCCN(C(=O)/C=C/CF)C1` [Compound 009] displayed an IC50 of 2.8 nM. Under `Cc1cc(-n2c(=O)n([C@@H]3CCCN(C(=O)/C=C/CF)C3)c3ccnc(N)c32)ccc1Oc1ccccc1` [Compound 010] stands 3.04 nM; under `Nc1nccc2c1n(-c1ccc(Oc3ccccc3)c(Cl)c1)c(=O)n2[C@@H]1CCCN(C(=O)/C=C/CF)C1` [Compound 011], 1.57 nM.
